Measured values taken from patent US20240319166A1, “Genetically-encoded volatile synthetic biomarkers for breath-based cancer detection” (The Board of Trustees of the Leland Stanford Junior …, priority 2021, published 2024).

Key:
[1] = Quantitation of limonene evolution from limonene-injected mice (closed chamber, SIFT-MS); assay type: in vivo
Experimental: Having observed robust limonene expression in transfected HeLa cells in culture, the feasibility of detecting limonene in exhaled breath from rodents was then tested. A standard curve relating limonene concentration in chamber headspace to the quantity of limonene spiked into 0.5-L chambers was generated. To determine the fraction of limonene in mice that was emitted into the headspace, mice were injected intraperitoneally with different quantities of a limonene standard solution (from 0.01 μg to 1 mg) and individual mice were placed in a closed chamber for 15 minutes, at which point headspace limonene concentrations were measured by SIFT-MS (FIG. 4A and FIG. 4B).
Using the standard curve, the mass of limonene exhaled by mice at each quantity injected was determined and the fraction exhaled was calculated. At the LOD (0.5 ppb), limonene in the chamber headspace became detectable when 2.3 ng had been spiked into the chamber, whereas limonene evolving from mice only became detectable at an injected dose of 450 ng (FIG. 4B, Supplementary Calculations shown in Example 2, infra). […]
Prior to mouse studies, a calibration curve was generated. Known limonene quantities (10 μg to 100 μg) were added to 10 mL of water in […] (Kent Scientific, Torrington, CT). […]

[2] = cited from earlier work

C=C(C)[C@H]1CC=C(C)CC1 [limonene]
fraction of injected limonene emitted into the chamber headspace ([1]; intraperitoneal injection, 0.5-L chamber, within 15 minutes): ~0.5% | injected dose at which limonene evolving from mice became detectable ([1]; intraperitoneal, at the LOD (0.5 ppb), 15 minutes): 450 ng | safe oral dose [2]: ≤ 100 mg/kg | safe oral dose for an average 70 kg adult [2]: ~7 g
